Article PMC4437653, “Biochemical, Kinetic, and Spectroscopic Characterization of Ruegeria pomeroyi DddW—A Mononuclear Iron-Dependent DMSP Lyase” (PLoS ONE, 2015)

Tests used:
DddW [1] = target: T1, DddW (Ruegeria pomeroyi, UniProt Q5LW89, H83A); experiment: HPLC of acrylate product at […] nm, […] min end point; type: biochemical; settings: 2 uM enzyme, 2 uM Fe(II), 10 mM DMSP, anaerobic
T1 construct: E. coli BL21Star DE3 pLysS; EDTA-treated apo enzyme loaded with metal; homodimer; cloning primers encode MTAMLDSF at the N-terminus and RFTASA at the C-terminus

DddW [2] = target: T2, DddW (Ruegeria pomeroyi, UniProt Q5LW89, H121A); experiment: HPLC of acrylate product at […] nm, […] min end point; type: biochemical; settings: 2 uM enzyme, 2 uM Fe(II), 10 mM DMSP, anaerobic
T2 construct: E. coli BL21Star DE3 pLysS; EDTA-treated apo enzyme loaded with metal; homodimer; cloning primers encode MTAMLDSF at the N-terminus and RFTASA at the C-terminus

DddW [3] = target: T3, DddW (Ruegeria pomeroyi, UniProt Q5LW89, H81A); experiment: HPLC of acrylate product at […] nm, […] min end point; type: biochemical; settings: 2 uM enzyme, 2 uM Fe(II), 10 mM DMSP, anaerobic
T3 construct: E. coli BL21Star DE3 pLysS; EDTA-treated apo enzyme loaded with metal; homodimer; cloning primers encode MTAMLDSF at the N-terminus and RFTASA at the C-terminus

DddW [4] = target: T4, DddW (Ruegeria pomeroyi, UniProt Q5LW89, E87A); experiment: HPLC of acrylate product at […] nm, […] min end point; type: biochemical; settings: 2 uM enzyme, 2 uM Fe(II), 10 mM DMSP, anaerobic
T4 construct: E. coli BL21Star DE3 pLysS; EDTA-treated apo enzyme loaded with metal; homodimer; cloning primers encode MTAMLDSF at the N-terminus and RFTASA at the C-terminus

purified protein = substrate: C[S+](C)CCC(=O)[O-]; experiment: purified protein; type: biochemical, Ruegeria pomeroyi; settings: 2 uM apo-DddW with 2 uM Fe(II), pH 8.0, 50 mM HEPES, 20 mM NaCl, room temperature, anaerobic, DMSP 0.5-35 mM
[5] = target: the molecule itself; experiment: SEC; as-isolated apo-DddW (19 mg/mL) on Superdex 200 16/600 in storage buffer (50 mM HEPES pH 7.5, 100 mM NaCl, 10% glycerol), 0.6 mL/min; mass by comparison with standards

T2 sequence (Q5LW89 whole entry H121A): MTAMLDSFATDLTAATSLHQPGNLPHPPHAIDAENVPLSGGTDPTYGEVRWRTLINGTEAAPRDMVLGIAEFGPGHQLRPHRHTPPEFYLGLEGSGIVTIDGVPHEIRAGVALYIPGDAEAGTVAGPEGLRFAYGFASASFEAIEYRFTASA
T3 sequence (Q5LW89 whole entry H81A): as the sequence (Q5LW89 whole entry H121A) above, with H81A, A121H counted along it
T1 sequence (Q5LW89 whole entry H83A): as the sequence (Q5LW89 whole entry H121A) above, with H83A, A121H counted along it
T4 sequence (Q5LW89 whole entry E87A): as the sequence (Q5LW89 whole entry H121A) above, with E87A, A121H counted along it

## C[S+](C)CCC(=O)[O-] [DMSP]
DddW [1]
  no acrylate product formed: none of the DddW mutants formed the acrylate product compared to the wild-type enzyme
DddW [2]
  no acrylate product formed: none of the DddW mutants formed the acrylate product compared to the wild-type enzyme
DddW [3]
  no acrylate product formed: none of the DddW mutants formed the acrylate product compared to the wild-type enzyme
DddW [4]
  no acrylate product formed: none of the DddW mutants formed the acrylate product compared to the wild-type enzyme

B1: Ruegeria pomeroyi DSS-3 DddW (DMSP lyase), N-terminally His-tagged, apo form (enzyme, UniProt Q5LW89 1-152, looked up)
chain: MTAMLDSFATDLTAATSLHQPGNLPHPPHAIDAENVPLSGGTDPTYGEVRWRTLINGTEAAPRDMVLGIAEFGPGHQLRPHRHTPPEFYLGLEGSGIVTIDGVPHEIRAGVALYIPGDAEHGTVAGPEGLRFAYGFASASFEAIEYRFTASA
notes: DddW, DMSP lyase of Ruegeria pomeroyi DSS-3 (locus SPO0453), 16.9 kDa without tag; No removal of the His10 tag is described; also called apo-DddW; SPO0453; source: E. coli BL21Star DE3 pLysS, purified (Ni-NTA), dialysed against EDTA to give apo-DddW
Purified protein
  Km: 8.68 ± 0.73 mM
  kcat: 18.25 s⁻¹
[5]
  stoichiometry N: 2
